Measurements from the Deep4Chem optical property database.
One block for each compound: values may come before it.

Experiment: photoluminescence quantum yield (fraction); solvent given as SMILES

photoluminescence quantum yield (in C1CCOC1): 0.07
SMILES: c1cc2c3c4c5c(cccc5cc3c1)-c1cccn1B4n1cccc1-2

photoluminescence quantum yield (in ClCCl): 0.26
SMILES: c1ccc(-c2cc3c(-c4ccccc4)c4cccc5c(-c6ccccc6)cc6c(-c7ccccc7)c7cccc2c7c3c6c54)cc1

photoluminescence quantum yield (in ClCCl): 0.1
SMILES: F[B-]1(F)n2c(-c3ccccc3)cc(-c3cccs3)c2N=C2C(c3cccs3)=CC(c3ccccc3)=[N+]21

photoluminescence quantum yield (in ClCCl): 0.63
SMILES: CCCCn1c(-c2ccc(-c3nnc(-c4ccc(-c5nc6ccccc6n5CCCC)cc4)o3)cc2)nc2ccccc21

photoluminescence quantum yield (in ClCCl): 0.62
SMILES: CCCCn1c(-c2ccc(-c3nnc(-c4cccs4)o3)cc2)nc2c3ccccc3c3ccccc3c21

photoluminescence quantum yield (in ClCCl): 0.66
SMILES: c1ccc(N(c2ccccc2)c2ccc(-c3ccc4c(c3)C3(c5cc(-c6ccc(N(c7ccccc7)c7ccccc7)cc6)ccc5S4)c4ccccc4-c4ccccc43)cc2)cc1

photoluminescence quantum yield (in CCO): 0.005
SMILES: CC1(C)CC(/C=C/c2ccc(-n3c4ccccc4c4ccccc43)cc2)=CC(=C(C#N)C#N)C1

photoluminescence quantum yield (in C1CCOC1): 0.06
SMILES: CCCCCCc1cc2c(s1)-c1sc(CCCCCC)cc1P(c1ccccc1)(c1ccccc1)=[O+][B-]2(c1c(C)cc(C)cc1C)c1c(C)cc(C)cc1C

photoluminescence quantum yield (in CN(C)C=O): 0.8
SMILES: C(=C\c1ccc(-c2nnc(-c3ccccc3)o2)cc1)/c1ccc(-c2nnc(-c3ccccc3)o2)cc1

The next lines start with the compound.

SMILES: CCCCCCCCCCCCCCCCOc1cc(C#Cc2ccc3ccccc3c2)c(OCCCCCCCCCCCCCCCC)cc1C#Cc1ccc(C=C(C#N)C#N)cc1
photoluminescence quantum yield (in Brc1ccccc1): 0.43
photoluminescence quantum yield (in C1CCCCC1): 0.9
photoluminescence quantum yield (in C1CCOC1): 0.5
photoluminescence quantum yield (in C1COCCO1): 0.5
photoluminescence quantum yield (in CCCCCC): 0.87
photoluminescence quantum yield (in CCCCCCCCO): 0.35
photoluminescence quantum yield (in CCCCOCCCC): 0.81
photoluminescence quantum yield (in CCOC(C)=O): 0.23
photoluminescence quantum yield (in CCOCC): 0.79
photoluminescence quantum yield (in Cc1ccccc1): 0.82
photoluminescence quantum yield (in ClC(Cl)(Cl)Cl): 0.81
photoluminescence quantum yield (in ClC(Cl)Cl): 0.78
photoluminescence quantum yield (in ClCCl): 0.19

SMILES: c1ccc(-c2cc(-c3ccccc3)cc(-c3ccc4c(c3)C3(c5cc(-c6cc(-c7ccccc7)cc(-c7ccccc7)c6)ccc5-4)c4ccccc4-c4c3c3c5ccccc5ccc3c3ccccc43)c2)cc1
photoluminescence quantum yield (in Cc1ccccc1): 0.59

SMILES: O=C(c1ccc(-n2c3ccccc3c3cc(-n4c5ccccc5c5ccccc54)ccc32)cc1)c1ccc(-n2c3ccccc3c3cc(-n4c5ccccc5c5ccccc54)ccc32)cn1
photoluminescence quantum yield (in Cc1ccccc1): 0.38
photoluminescence quantum yield (in O=P(c1ccccc1)(c1ccccc1)c1ccccc1Oc1ccccc1P(=O)(c1ccccc1)c1ccccc1): 0.73

SMILES: CC(=O)[B-]1(C(C)=O)OC(c2ccccc2)=CC(c2ccc3ccccc3c2)=[O+]1
photoluminescence quantum yield (in CC#N): 0.52
photoluminescence quantum yield (in ClC(Cl)(Cl)Cl): 0.58

SMILES: CCC1=C(C)c2cc3c(OC)cc(OC)cc3c(=O)n2C1=O
photoluminescence quantum yield (in CC#N): 0.54
photoluminescence quantum yield (in CO): 0.44
photoluminescence quantum yield (in CS(C)=O): 0.6
photoluminescence quantum yield (in ClC(Cl)Cl): 0.6

SMILES: CCN1c2ccc(/C=N/Nc3ccccn3)cc2Sc2cc(-c3cccc4ccccc34)ccc21
photoluminescence quantum yield (in C1CCOC1): 0.2
photoluminescence quantum yield (in CS(C)=O): 0.35
photoluminescence quantum yield (in Cc1ccccc1): 0.1
photoluminescence quantum yield (in ClCCl): 0.3

SMILES: Cn1c(=O)c(/N=N/c2cc(S(=O)(=O)O)ccc2C(=O)O)c(O)c2ccccc21
photoluminescence quantum yield (in CS(C)=O): 0.06

SMILES: CCCCN(CCCC)c1ccc2c#cc3cc4c#cc5ccc(C(F)(F)F)cc5c#cc#cc5cc(C(F)(F)F)ccc5c#cc4cc3c#cc3ccc(N(CCCC)CCCC)cc3c#cc#cc2c1
photoluminescence quantum yield (in ClCCl): 0.35

SMILES: c1ccc(-n2c3ccccc3c3c2c2ccccc2n3-c2ccccc2)cc1
photoluminescence quantum yield (in Cc1ccccc1): 0.404

SMILES: CC1(C)C(/C=C/C=C/C=C/C=C2/N(CCCCCC(=O)O)c3ccc(S(=O)(=O)[O-])cc3C2(C)C)=[N+](CCCCS(=O)(=O)[O-])c2ccc(S(=O)(=O)[O-])cc21
photoluminescence quantum yield (in CO): 0.55
photoluminescence quantum yield (in O): 0.3

SMILES: CCN(CC)c1ccc2c(c1)oc(=O)c1c(=O)oc3cc(C#Cc4ccc(C#N)cc4)ccc3c12
photoluminescence quantum yield (in CS(C)=O): 0.1
photoluminescence quantum yield (in ClCCl): 0.69

SMILES: Clc1ccc(/C=C/c2nc3ccccc3o2)cc1
photoluminescence quantum yield (in C1CCCCC1): 0.14
photoluminescence quantum yield (in CO): 0.02

SMILES: c1ccc(C2CCN3COc4c5ccccc5c5c6c7c(c2c3c46)C(c2ccccc2)CCN7CO5)cc1 (configuration not stated)
photoluminescence quantum yield (in C1CCCCC1): 0.715
photoluminescence quantum yield (in C1CCOC1): 0.124
photoluminescence quantum yield (in C1COCCO1): 0.183
photoluminescence quantum yield (in CC#N): 0.025
photoluminescence quantum yield (in CC(C)=O): 0.046
photoluminescence quantum yield (in CCOC(C)=O): 0.108
photoluminescence quantum yield (in CCOCC): 0.227
photoluminescence quantum yield (in CN(C)C=O): 0.039
photoluminescence quantum yield (in CO): 0.023
photoluminescence quantum yield (in CS(C)=O): 0.026
photoluminescence quantum yield (in Cc1ccccc1): 0.871
photoluminescence quantum yield (in ClC(Cl)Cl): 0.053
photoluminescence quantum yield (in ClCCl): 0.066
